Experiment [1] concerns p185^HER2 (HER2 receptor). In words: p185HER2 KIRA ELISA (receptor autophosphorylation in MCF-7 cells). The class given is cell-based, human. Particulars: for receptor stimulation and autophosphorylation (assay specificity, FIG. 8): HRG up to 3000 pM, other ligands up to 30000 pM. As to the method:
MCF-7 cells (2×10^5) in 100 μl media were added to each well in a flat-bottom-96 well culture plate and cultured overnight at 37° C. in 5% CO2. The following morning the well supernatants were decanted, and the plates were lightly tamped on a paper towel. 50 μl of media containing either experimental samples or the recombinant HRGβ1177-244 standards (3000, 1000, 333, 111, 37, 12, 4, and 0 pM) was then added to each well. The cells were stimulated at 37° C. for 30 min., the well supernatants were decanted, and the plates were once again lightly tamped on a paper towel. To lyse the cells and solubilize the receptors, 100 μl of lysis buffer was added to each well. Lysis buffer consisted of 150 mM NaCl containing 50 mM HEPES (Gibco), 0.5% Triton-X 100 (Gibco), 0.01% thimerosal, 30 KIU/ml aprotinin (ICN Biochemicals, Aurora, Ohio), 1 mM 4-(2-aminoethyl)-benzenesulfonyl fluoride hydrochloride (AEBSF; ICN Biochemicals), 50 μM leupeptin (ICN Biochemicals), and 2 mM sodium orthovanadate (Na3 VO4, Sigma Chemical Co, St. Louis, Mo.), pH 7.5. The plate was then agitated gently on a plate shaker (Bellco Instruments, Vineland, N.J.) for 60 min. at room temperature.
While the cells were being solubilized, an ELISA microtiter plate (Nunc Maxisorp, Inter Med, Denmark) coated overnight at 4° C. with the affinity-purified polyclonal anti-HER2 ECD (1.0 μg/ml in 50 mM carbonate buffer, pH 9.6, 100 μl/well) was decanted, tamped on a paper towel and blocked with 150 μl/well of Block Buffer [PBS containing 0.5% BSA (Intergen Company, Purchase, N.Y.) and 0.01% thimerosal] for 60 min. at room temperature with gentle agitation. After 60 minutes, the anti-HER2 ECD coated plate was washed 6 times with wash buffer (PBS containing 0.05% Tween-20 and 0.01% thimerosal) using an automated plate washer (ScanWasher 300, Skatron Instruments, Inc, Sterling, Va.).
The lysate containing solubilized p185^HER2 from the cell-culture microtiter well was transferred (85 μl/well) to anti-rHER2 ECD coated and blocked ELISA well and was incubated for 2 h at room temperature with gentle agitation. […] The absorbance at 450 nm was read with a reference wavelength of 650 nm (ABS450/650), using a vmax plate reader (Molecular Devices, Palo Alto, Calif.) controlled with a Macintosh Centris 650 (Apple Computers, Cupertino, Calif.) and DeltaSoft software (BioMetallics, Inc, Princeton, N.J.).
The standard curve shown in FIG. 7 was generated by stimulating MCF-7 cells with 3000, 1000, 333, 111, 37, 12, 4, or 0 pM HRGβ1177-244 and presented as pM HRGβ1177-244 vs. mean ABS450/650 ±sd using the DeltaSoft program. Sample concentrations were obtained by interpolation of their absorbance on the standard curve and are expressed in terms of pM HRGβ1177-244 activity.
(In an ELISA, binding on a coated surface is turned into a signal by an enzyme label.)

The target of the next experiment is trkA.IgG. Kind of experiment: Competitive displacement binding with iodinated NGF to trkA.IgG. Further details: species or system human. Here is the method: (§1) The media mentioned above (having the gD.trk.IgG) was used without further purification in binding assays to assess the effects of the presence of the gD flag polypeptide on neurotrophin binding to the gD.trk.IgG polypeptides. DNA encoding untagged trk.IgG polypeptide was run in parallel as a control. trk.IgG and gD tagged trk.IgG containing cell supernatants were prepared as described and used in competitive displacement assays with the appropriate iodinated neurotrophin. NGF is used as ligand for trkA, NT5 is used as ligand for trkB, and NT3 is used as a ligand for trkC.

A further experiment has as its target trkC.IgG. In words: Competitive displacement binding with iodinated NT3 to trkC.IgG. Also noted: species or system human. Here is the method: as §1
The target of a further experiment is trkB.IgG. In words: Competitive displacement binding with iodinated NT5 to trkB.IgG. Further details: species or system human. As to the method:
as §1

Like-named read-outs stand apart in the source and are kept apart here.

In the case of EGF: epidermal growth factor, the OD450/650 in experiment [1] (highest concentration tested (100 nM)) amounted to 0.239.

As for IGF-1: insulin-like growth factor-1, in experiment [1], the “receptor stimulation and autophosphorylation (assay specificity, FIG. 8)” value was “Neither insulin-like growth factor-1 (IGF-1), vascular endothelial growth factor (VEGF) nor insulin have any detectable effect”. In the case of “NGF: nerve growth factor prepared by recombinant techniques; ligand for trkA”, the half-inhibitory concentration (IC50) stood at 0.0688 ± 0.003 nM on trkA.IgG (gD tagged trkA.IgG, read-out: IC50 with gD) and 0.0684 ± 0.0119 nM on trkA.IgG (trkA.IgG, untagged, read-out: IC50 without gD). With “NT3: neurotrophin 3 prepared by recombinant techniques; ligand for trkC”, the concentration for half-maximal inhibition (IC50) was 0.0302 ± 0.0007 nM on trkC.IgG (gD tagged trkC.IgG, read-out: IC50 with gD) and 0.0311 ± 0.0011 nM on trkC.IgG (trkC.IgG, untagged, read-out: IC50 without gD). For VEGF, the “receptor stimulation and autophosphorylation (assay specificity, FIG. 8)” value in experiment [1] is recorded as “Neither insulin-like growth factor-1 (IGF-1), vascular endothelial growth factor (VEGF) nor insulin have any detectable effect”. Still for that read-out and setting: in the case of insulin: insulin it was “Neither insulin-like growth factor-1 (IGF-1), vascular endothelial growth factor (VEGF) nor insulin have any detectable effect”.

B1: NT5: neurotrophin 5 prepared by recombinant techniques; ligand for trkB (protein, UniProt P34130 81-210, looked up)
Neurotrophin-4: GVSETAPASRRGELAVCDAVSGWVTDRRTAVDLRGREVEVLGEVPAAGGSPLRQYFFETRCKADNAEEGGPGAGGGGCRGVDRRHWVSECKAKQSYVRALTADAQGRVGWRWIRIDTACVCTLLSRTGRA
On to B1, for which the half-inhibitory concentration (IC50) on trkB.IgG (gD tagged trkB.IgG, read-out: IC50 with gD) amounted to 0.0121 ± 0.018 nM; on trkB.IgG (trkB.IgG, untagged, read-out: IC50 without gD) it was 0.0311 ± 0.0156 nM.

Usually IC50 stands for the concentration that gives 50% inhibition.

Source of the values: US5914237A, “Kinase receptor activation assay” (Genentech Incorporated, priority 1995, dated 1999).
